Measurements reported in patent US11427567B2, “Imidazolyl pyrimidinylamine compounds as CDK2 inhibitors” (Incyte Corporation, priority 2019, dated 2022).

target: CDK2/Cyclin E1 (Homo sapiens (Human), UniProt P24941); assay: CDK2/Cyclin E1 HTRF enzyme activity assay (Example A); type: biochemical; settings: 1 mM ATP
Method: Assays were conducted in white 384-well polystyrene plates in a final reaction volume of 8 μL. […] HTRF signals were read after 1 hour at room temperature on a PHERAstar FS plate reader (BMG Labtech). Data was analyzed with IDBS XLFit and GraphPad Prism 5.0 software using a three or four parameter dose response curve to determine IC50 for each compound.

Row | Compound | IC50 [nM]
1 | CN1CCN(Cc2cc(F)c(-n3cnc(-c4nc(NC5CCN(S(C)(=O)=O)CC5)ncc4C(F)(F)F)c3)c(F)c2)CC1=O [Example 409, 4-(3,5-Difluoro-4-(4-(2-((1-(methylsulfonyl)piperidin-4-yl)amino)-5-(trifluoromethyl)pyrimidin-4-yl)-1H-imidazol-1-yl)benzyl)-1-methylpiperazin-2-one] | ≤ 50
2 | C[C@]1(O)CCN(Cc2ccc(-n3cnc(-c4nc(N[C@@H]5CCN(S(C)(=O)=O)C[C@H]5F)ncc4C(F)(F)F)c3)c(Cl)c2)C1 [Example 410, (S)-1-(3-Chloro-4-(4-(2-(((3R,4R)-3-fluoro-1-(methylsulfonyl)piperidin-4-yl)amino)-5-(trifluoromethyl)pyrimidin-4-yl)-1H-imidazol-1-yl)benzyl)-3-methylpyrrolidin-3-ol] | ≤ 50
3 | C[C@]1(O)CCN(Cc2ccc(-n3cnc(-c4nc(N[C@H]5CCN(S(C)(=O)=O)C[C@H]5F)ncc4C(F)(F)F)c3)c(Cl)c2)C1 [Example 412, (S)-1-(3-Chloro-4-(4-(2-(((3R,4S)-3-fluoro-1-(methylsulfonyl)piperidin-4-yl)amino)-5-(trifluoromethyl)pyrimidin-4-yl)-1H-imidazol-1-yl)benzyl)-3-methylpyrrolidin-3-ol] | ≤ 50
4 | CCN(CC)C1CCN(c2ccc(-n3cc(-c4nc(NC5CCN(S(C)(=O)=O)CC5)ncc4C(F)(F)F)nc3C)c(F)c2)CC1 [Example 413, 4-(1-(4-(4-(Diethylamino)piperidin-1-yl)-2-fluorophenyl)-2-methyl-1H-imidazol-4-yl)-N-(1-(methylsulfonyl)piperidin-4-yl)-5-(trifluoromethyl)pyrimidin-2-amine] | ≤ 50
5 | Cc1nc(-c2nc(NC3CCN(S(C)(=O)=O)CC3)ncc2C(F)(F)F)cn1-c1ccc(N2CCC(C)(N3CCCC3)CC2)cc1F [Example 414, 4-(1-(2-Fluoro-4-(4-methyl-4-(pyrrolidin-1-yl)piperidin-1-yl)phenyl)-2-methyl-1H-imidazol-4-yl)-N-(1-(methylsulfonyl)piperidin-4-yl)-5-(trifluoromethyl)pyrimidin-2-amine] | ≤ 50
6 | Cc1nc(-c2nc(NC3CCN(S(C)(=O)=O)CC3)ncc2C(F)(F)F)cn1-c1ccc(N2CCC(N3CCN(C)CC3)CC2)cc1F [Example 415, 4-(1-(2-Fluoro-4-(4-(4-methylpiperazin-1-yl)piperidin-1-yl)phenyl)-2-methyl-1H-imidazol-4-yl)-N-(1-(methylsulfonyl)piperidin-4-yl)-5-(trifluoromethyl)pyrimidin-2-amine] | ≤ 50
7 | Cc1nc(-c2nc(NC3CCN(S(C)(=O)=O)CC3)ncc2C(F)(F)F)cn1-c1ccc(CCN2CCC2)cc1F [Example 416, 4-(1-(4-(2-(Azetidin-1-yl)ethyl)-2-fluorophenyl)-2-methyl-1H-imidazol-4-yl)-N-(1-(methylsulfonyl)piperidin-4-yl)-5-(trifluoromethyl)pyrimidin-2-amine] | ≤ 50
8 | Cc1nc(-c2nc(NC3CCN(S(C)(=O)=O)CC3)ncc2C(F)(F)F)cn1-c1ccc(C2CN(C)C2)cc1F [Example 417, 4-(1-(2-Fluoro-4-(1-methylazetidin-3-yl)phenyl)-2-methyl-1H-imidazol-4-yl)-N-(1-(methylsulfonyl)piperidin-4-yl)-5-(trifluoromethyl)pyrimidin-2-amine] | ≤ 50
9 | CCN1CC(c2ccc(-n3cc(-c4nc(NC5CCN(S(C)(=O)=O)CC5)ncc4C(F)(F)F)nc3C)c(F)c2)C1 [Example 418, 4-(1-(4-(1-Ethylazetidin-3-yl)-2-fluorophenyl)-2-methyl-1H-imidazol-4-yl)-N-(1-(methylsulfonyl)piperidin-4-yl)-5-(trifluoromethyl)pyrimidin-2-amine] | ≤ 50
10 | Cc1nc(-c2nc(NC3CCN(S(C)(=O)=O)CC3)ncc2C(F)(F)F)cn1-c1ccc(C2CN(C[C@H](C)O)C2)cc1F [Example 419, (S)-1-(3-(3-Fluoro-4-(2-methyl-4-(2-((1-(methylsulfonyl)piperidin-4-yl)amino)-5-(trifluoromethyl)pyrimidin-4-yl)-1H-imidazol-1-yl)phenyl)azetidin-1-yl)propan-2-ol] | ≤ 50
11 | Cc1nc(-c2nc(NC3CCN(S(C)(=O)=O)CC3)ncc2C(F)(F)F)cn1-c1ccc(C2CN(CCO)C2)cc1F [Example 420, 2-(3-(3-Fluoro-4-(2-methyl-4-(2-((1-(methylsulfonyl)piperidin-4-yl)amino)-5-(trifluoromethyl)pyrimidin-4-yl)-1H-imidazol-1-yl)phenyl)azetidin-1-yl)ethan-1-ol] | ≤ 50
12 | Cc1nc(-c2nc(NC3CCN(S(C)(=O)=O)CC3)ncc2C(F)(F)F)cn1-c1ccc(C2CN(C[C@@H](C)O)C2)cc1F [Example 421, (R)-1-(3-(3-Fluoro-4-(2-methyl-4-(2-((1-(methylsulfonyl)piperidin-4-yl)amino)-5-(trifluoromethyl)pyrimidin-4-yl)-1H-imidazol-1-yl)phenyl)azetidin-1-yl)propan-2-ol] | ≤ 50
13 | Cc1nc(-c2nc(NC3CCN(S(C)(=O)=O)CC3)ncc2C(F)(F)F)cn1-c1ccc(C2CN(CC3(O)CC3)C2)cc1F [Example 422, 1-((3-(3-Fluoro-4-(2-methyl-4-(2-((1-(methylsulfonyl)piperidin-4-yl)amino)-5-(trifluoromethyl)pyrimidin-4-yl)-1H-imidazol-1-yl)phenyl)azetidin-1-yl)methyl)cyclopropan-1-ol] | ≤ 50
14 | Cc1nc(-c2nc(NC3CCN(S(C)(=O)=O)CC3)ncc2C(F)(F)F)cn1-c1ccc(OCCN(C)C)cc1F [Example 423, 4-(1-(4-(2-(Dimethylamino)ethoxy)-2-fluorophenyl)-2-methyl-1H-imidazol-4-yl)-N-(1-(methylsulfonyl)piperidin-4-yl)-5-(trifluoromethyl)pyrimidin-2-amine] | ≤ 50
15 | Cc1nc(-c2nc(NC3CCN(S(C)(=O)=O)CC3)ncc2C(F)(F)F)cn1-c1ccc(OCCN2CCCC2)cc1F [Example 424, 4-(1-(2-Fluoro-4-(2-(pyrrolidin-1-yl)ethoxy)phenyl)-2-methyl-1H-imidazol-4-yl)-N-(1-(mehtylsulfonyl)piperidin-4-yl)-5-(trifluoromethyl)pyrimidin-2-amine] | ≤ 50
16 | Cc1nc(-c2nc(NC3CCN(S(C)(=O)=O)CC3)ncc2C(F)(F)F)cn1-c1ccc(OC[C@@H]2CCCN2C)cc1F [Example 425, (S)-4-(1-(2-Fluoro-4-((1-methylpyrrolidin-2-yl)methoxy)phenyl)-2-methyl-1H-imidazol-4-yl)-N-(1-(methylsulfonyl)piperidin-4-yl)-5-(trifluoromethyl)pyrimidin-2-amine] | ≤ 50
17 | Cc1nc(-c2nc(NC3CCN(S(C)(=O)=O)CC3)ncc2C(F)(F)F)cn1-c1ccc(OC[C@H]2CCCN2C)cc1F [Example 426, (R)-4-(1-(2-Fluoro-4-((1-methylpyrrolidin-2-yl)methoxy)phenyl)-2-methyl-1H-imidazol-4-yl)-N-(1-(methylsulfonyl)piperidin-4-yl)-5-(trifluoromethyl)pyrimidin-2-amine] | ≤ 50
18 | CC(C)N1CC(c2ccc(-n3cnc(-c4nc(NC5CCN(S(C)(=O)=O)CC5)ncc4C(F)(F)F)c3)c(C#N)c2)C1 [Example 427, 5-(1-Isopropylazetidin-3-yl)-2-(4-(2-((1-(methylsulfonyl)piperidin-4-yl)amino)-5-(trifluoromethyl)pyrimidin-4-yl)-1H-imidazol-1-yl)benzonitrile] | ≤ 50
